Reference: patent US20060074243A1, “Hydroxamic acid and amide compounds and their use as protease inhibitors” (Pharmacia Corporation, priority 2002, published 2006)

Legend:
Test in all cases: In vitro MMP inhibition analysis (fluorogenic peptide substrate cleavage), Ki
Assay type in all cases: biochemical
Conditions in all cases: Table 2
Human recombinant MMP-14 = target: T1, Human recombinant MMP-14 (Homo sapiens, UniProt P50281)
T1 construct: The catalytic domain enzyme was expressed in E. coli inclusion bodies, solubilized in urea; made in house
Summary of the method: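 Refolded catalytic domain of MMP-14 expressed in E. coli, activated with APMA or trypsin, incubated 1 h at room temperature with 4 μM MCA-peptide substrate in Tris buffer pH 7.5 with CaCl2. Cleavage rate followed by fluorescence (ex 330/em 420 nm). Ki from Morrison-equation fit; substrate at or below Km, so no substrate correction.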

Human recombinant MMP-2 = target: T2, Human recombinant MMP-2 (Homo sapiens, UniProt P08253)
T2 construct: made in house; host or cells: MMP-2-transfected p2AHT2 cells
T2 sequence (P08253 110-660): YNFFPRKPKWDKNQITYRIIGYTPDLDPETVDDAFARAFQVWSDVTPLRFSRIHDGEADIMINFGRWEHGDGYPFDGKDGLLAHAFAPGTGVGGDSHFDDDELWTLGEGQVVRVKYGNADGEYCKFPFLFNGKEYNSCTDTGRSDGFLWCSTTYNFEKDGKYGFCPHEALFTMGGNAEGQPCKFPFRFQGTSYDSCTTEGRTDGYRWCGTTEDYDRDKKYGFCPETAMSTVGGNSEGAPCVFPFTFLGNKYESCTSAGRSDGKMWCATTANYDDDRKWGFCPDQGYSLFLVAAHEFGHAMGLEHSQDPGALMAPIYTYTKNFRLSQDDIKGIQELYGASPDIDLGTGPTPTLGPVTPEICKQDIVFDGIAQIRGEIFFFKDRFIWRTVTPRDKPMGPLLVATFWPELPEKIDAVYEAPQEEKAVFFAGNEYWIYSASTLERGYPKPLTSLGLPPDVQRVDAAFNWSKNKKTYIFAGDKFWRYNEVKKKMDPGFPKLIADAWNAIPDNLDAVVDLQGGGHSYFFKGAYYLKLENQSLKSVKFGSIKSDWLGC
Summary of the method: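 Human recombinant MMP-2 from transfected p2AHT2 cells was activated with APMA or trypsin and incubated 1 h at room temperature with compounds and 4 μM MCA-RPLGL(Dpa)ARER-NH2. Buffer was pH 7.5 Tris/NaCl/CaCl2, and fluorescence was read at ex 330/em 420 nm. Ki was fitted by Morrison's equation without substrate correction.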

Human recombinant MMP-1 = target: T3, Human recombinant MMP-1 (Homo sapiens, UniProt P03956)
T3 construct: made in house; host or cells: MMP-1-transfected HT-1080 cells (spent media)
T3 sequence (P03956 100-469): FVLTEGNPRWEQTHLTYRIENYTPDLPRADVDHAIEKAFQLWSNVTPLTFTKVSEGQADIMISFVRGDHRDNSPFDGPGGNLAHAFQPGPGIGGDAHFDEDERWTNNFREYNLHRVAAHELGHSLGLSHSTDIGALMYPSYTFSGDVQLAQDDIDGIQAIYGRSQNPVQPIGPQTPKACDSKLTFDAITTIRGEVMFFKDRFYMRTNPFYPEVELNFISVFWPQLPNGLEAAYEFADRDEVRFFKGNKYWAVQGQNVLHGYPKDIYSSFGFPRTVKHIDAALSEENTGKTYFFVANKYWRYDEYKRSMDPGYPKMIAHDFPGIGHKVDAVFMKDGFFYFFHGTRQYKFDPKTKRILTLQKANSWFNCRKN
Summary of the method: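 APMA- or trypsin-activated recombinant human MMP-1 (purified from transfected HT-1080 medium) with 4 μM MCA/Dpa quenched fluorogenic peptide, 1 h at room temperature in Tris/NaCl/CaCl2 buffer pH 7.5; fluorescence ex 330/em 420 nm. Ki from Morrison-equation fit of rates, substrate at or below Km, uncorrected.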

Human recombinant MMP-9 = target: T4, Human recombinant MMP-9 (Homo sapiens, UniProt P14780)
T4 construct: made in house; host or cells: MMP-9-transfected HT1080 cells (spent media)
Summary of the method: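 Recombinant MMP-9 purified from transfected HT1080 cell media, activated with APMA, trypsin or recombinant MMP-3, assayed in Tris buffer pH 7.5 with CaCl2 and 4 μM fluorogenic MCA/Dpa peptide, 1 h at room temperature (ex 330/em 420 nm). Ki from Morrison-equation regression of velocity; substrate at or below Km, uncorrected.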

T4 sequence (P14780 107-707 limits assumed): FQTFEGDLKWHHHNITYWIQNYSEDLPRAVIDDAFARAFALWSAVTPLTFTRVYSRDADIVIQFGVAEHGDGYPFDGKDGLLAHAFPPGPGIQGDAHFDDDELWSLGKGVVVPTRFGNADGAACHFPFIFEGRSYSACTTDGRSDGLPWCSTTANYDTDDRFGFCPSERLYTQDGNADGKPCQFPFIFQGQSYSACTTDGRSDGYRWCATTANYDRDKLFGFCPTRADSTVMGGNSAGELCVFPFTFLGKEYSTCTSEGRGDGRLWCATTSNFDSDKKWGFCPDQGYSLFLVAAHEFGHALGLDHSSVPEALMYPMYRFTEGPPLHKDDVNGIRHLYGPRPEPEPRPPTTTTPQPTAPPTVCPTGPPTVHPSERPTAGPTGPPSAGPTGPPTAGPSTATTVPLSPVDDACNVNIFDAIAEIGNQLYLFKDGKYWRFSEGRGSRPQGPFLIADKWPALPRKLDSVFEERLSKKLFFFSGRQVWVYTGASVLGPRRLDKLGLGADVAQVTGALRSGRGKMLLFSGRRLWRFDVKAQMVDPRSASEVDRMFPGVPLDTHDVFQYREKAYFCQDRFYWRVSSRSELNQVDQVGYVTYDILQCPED

Row | Ki (Human recombinant MMP-14) [nM] | Ki (Human recombinant MMP-2) [nM] | Ki (Human recombinant MMP-1) [nM] | Ki (Human recombinant MMP-9) [nM] | Structure (SMILES)
1 | 633 | 0.24 | 6370 | 0.62 | O=C(N1CCOCC1)N1CCC(C(=O)NO)(S(=O)(=O)c2ccc(-c3ccc(CCC(F)(F)C(F)(F)F)cc3)cc2)CC1 [Example 171]
2 | > 10000 | 34.7 | > 10000 | 437 | O=C(Cc1ccc(-c2ccc(S(=O)(=O)C3(C(=O)NO)CCOCC3)cc2)nc1)N1CCCCC1 [Example 212]
3 | 441 | 0.35 | 4610 | 0.67 | CN(C)C(=O)N1CCC(C(=O)NO)(S(=O)(=O)c2ccc(-c3ccc(CCC(F)(F)C(F)(F)F)cc3)cc2)CC1 [Example 173]
4 | 2940 | 1.09 | > 10000 | 3.4 | O=C(NO)C1(S(=O)(=O)c2ccc(-c3cnc(-n4cccc4)cn3)cc2)CCOCC1 [Example 94]
5 | > 10000 | 6200 | > 10000 | > 10000 | O=C(NO)C1(S(=O)(=O)c2ccc(-c3ccccc3CO)cc2)CCOCC1 [Example 197]
6 | 586 | 0.085 | 4510 | 0.147 | C#CCN1CCC(C(=O)NO)(S(=O)(=O)c2ccc(-c3ccc(CCC(F)(F)C(F)(F)F)cn3)cc2)CC1 [Example 199]
7 | 139 | 0.0488 | 2260 | 0.0528 | CCCCc1ccc(-c2ccc(S(=O)(=O)C3(C(=O)NO)CCOCC3)cc2)nc1 [Example 89]
8 | > 10000 | 85.7 | > 10000 | 414 | CC(C)CCOc1ccc(-c2ccc(S(=O)(=O)C3(C(=O)NO)CCOCC3)cc2)cc1C(F)(F)F [Example 86]
9 | 234 | 0.09 | 693 | 0.08 | CC(C)COc1cnc(-c2ccc(S(=O)(=O)C3(C(=O)NO)CCOCC3)cc2)cn1 [Example 170]
10 | 2520 | 1.09 | > 10000 | 0.59 | CC(C)CCc1cnc(-c2ccc(S(=O)(=O)C3(C(=O)NO)CCOCC3)cc2)cn1 [Example 169]
11 | > 10000 | 0.42 | > 10000 | 1.35 | O=C(N1CCCCC1)N1CCC(C(=O)NO)(S(=O)(=O)c2ccc(-c3ccc(CCC(F)(F)C(F)(F)F)cc3)cc2)CC1 [Example 175]
12 | 174 | 0.18 | 1290 | 0.398 | CCCCOc1ccc(-c2ccc(S(=O)(=O)C3(C(=O)NO)CCOCC3)cc2)cc1 [Example 77]
13 | 1760 | 0.588 | 1700 | 9.25 | Cc1nc(CCc2ccc(-c3ccc(S(=O)(=O)C4(C(=O)NO)CCOCC4)cc3)cc2)no1 [Example 219]
14 | 625 | 0.32 | 7020 | 0.16 | COCCO[C@H]1CC[C@](C(=O)NO)(S(=O)(=O)c2ccc(-c3cnc(CCC(F)(F)C(F)(F)F)cn3)cc2)CC1 [Example 187]
15 | > 10000 | 1.93 | > 10000 | 0.938 | O=C(NO)C1(S(=O)(=O)c2ccc(-c3cnc(CCCC(F)(F)F)cn3)cc2)CCN(C2CC2)CC1 [Example 218]
16 | 1290 | 0.8 | 533 | 13.1 | CCCCNC(=O)c1cnc(-c2ccc(S(=O)(=O)C3(C(=O)NO)CCOCC3)cc2)cn1 [Example 184]
17 | 463 | 0.17 | 1020 | 0.752 | O=C(NO)C1(S(=O)(=O)c2ccc(-c3ccc(OCC(F)(F)C(F)(F)F)cc3)cc2)CCOCC1 [Example 95]
18 | 6360 | 7.44 | > 10000 | 2.75 | CCCCNc1cnc(-c2ccc(S(=O)(=O)C3(C(=O)NO)CCOCC3)cc2)cn1 [Example 83]

Row | Ki (Human recombinant MMP-14) [nM] | Ki (Human recombinant MMP-2) [nM] | Ki (Human recombinant MMP-1) [nM] | Ki (Human recombinant MMP-9) [nM] | Structure (SMILES)
19 | > 10000 | 2.98 | > 10000 | 1.8 | CCCCc1cnc(-c2ccc(S(=O)(=O)C3(C(=O)NO)CCN(CCOC)CC3)cc2)cn1 [Example 206]
20 | 989 | 10.1 | > 10000 | 97.1 | O=C(NO)C1(S(=O)(=O)c2ccc(-c3ccc(F)c(C(F)(F)F)c3)cc2)CCOCC1 [Example 84]
21 | 623 | 0.272 | 465 | 0.264 | COC(=O)c1ccc2cc(-c3ccc(S(=O)(=O)C4(C(=O)NO)CCOCC4)cc3)ccc2c1 [Example 181]
22 | 6850 | 5.61 | 1860 | 16.7 | CN(C)C(=O)c1ccc2cc(-c3ccc(S(=O)(=O)C4(C(=O)NO)CCOCC4)cc3)ccc2c1 [Example 221]
23 | 22.6 | 0.106 | 354 | 0.993 | Cc1ccc(-c2ccc(S(=O)(=O)C3(C(=O)NO)CCOCC3)cc2)nc1 [Example 81]
24 | > 10000 | 947 | > 10000 | 430 | O=C1c2ccccc2C(=O)N1CCCOc1cccc(-c2ccc(S(=O)(=O)C3(C(=O)NO)CCOCC3)cc2)c1 [Example 196]
25 | 2800 | 33.4 | > 10000 | 248 | O=C(NO)C1(S(=O)(=O)c2ccc(-c3ccc(OCC(F)(F)C(F)F)c(C(F)(F)F)c3)cc2)CCOCC1 [Example 85]
26 | 2050 | 0.91 | 501 | 13.5 | CC(C)CCNC(=O)c1cnc(-c2ccc(S(=O)(=O)C3(C(=O)NO)CCOCC3)cc2)cn1 [Example 185]
27 | 9570 | 55.5 | > 10000 | 132 | CCCCOc1ccc(-c2ccc(S(=O)(=O)C3(C(=O)NO)CCOCC3)cc2)cc1C(F)(F)F [Example 78]
28 | 111 | 0.04 | 1200 | 0.04 | O=C(NO)C1(S(=O)(=O)c2ccc(-c3ccc(CCC(F)(F)F)cn3)cc2)CCOCC1 [Example 176]
29 | > 10000 | 9.06 | > 10000 | 5.22 | CCN1CCC(C(=O)NO)(S(=O)(=O)c2ccc(-c3cnc(CCCC(F)(F)F)cn3)cc2)CC1 [Example 217]
30 | 1180 | 1.24 | > 10000 | 3.77 | CC(C)N(C(=O)N1CCC(C(=O)NO)(S(=O)(=O)c2ccc(-c3ccc(CCC(F)(F)C(F)(F)F)cc3)cc2)CC1)C(C)C [Example 174]
31 | 62.3 | 0.158 | 1110 | 0.176 | CCCc1ccc(-c2ccc(S(=O)(=O)C3(C(=O)NO)CCOCC3)cc2)cc1 [Example 87]
32 | 89.1 | 0.098 | 577 | 0.622 | O=C(NO)C1(S(=O)(=O)c2ccc(-c3ccc(OC(F)(F)F)cc3)cc2)CCOCC1 [Example 80]
33 | 5860 | 1.57 | > 10000 | 5.36 | COCCC(C(=O)NO)S(=O)(=O)c1ccc(-c2ccc(CCC(F)(F)C(F)(F)F)cc2)cc1 (centres unmarked) [Example 177]
34 | 109 | 1.14 | 1040 | 5.4 | CC(C)c1ccc(-c2ccc(S(=O)(=O)C3(C(=O)NO)CCOCC3)cc2)cc1 [Example 97]
35 | 4610 | 2.33 | 1100 | 21.7 | CC(C)CNC(=O)c1cnc(-c2ccc(S(=O)(=O)C3(C(=O)NO)CCOCC3)cc2)cn1 [Example 186]
